According to patent EP1377579B1 (Aventis Pharmaceuticals Inc., priority 2000, dated 2002):
Structures can show the parent of a compound that is named as a salt. Where two headings read alike, the source gives them in different places.

Key:
MDA-MB-435 = assay: In vitro proliferation assay (MTT), MDA-MB-435; type: cell-based, human; conditions: value (SD, n) where given, read-out: MB-435 Breast (IC50 µM)
Procedure: (§1) The proliferation of tumor cells can be measured using a tetrazolium salt-based assay known as the MTT (3-[4,5-Dimethylthiazol-2-yl]-2,5-diphenyltetrazolium bromide) assay. […] For the assay, the cell lines are plated onto 96 well plates at 1000 to 2500 cells/well (depending on the properties of the individual cell lines), left to attach and recover overnight. […] After 3 days, the cells are incubated with MTT dye (3-[4,5-Dimethylthiazol-2-yl]-2,5-diphenyltetrazolium bromide, Sigma # M5655, 10 mg/ml in Hank's Buffered Saline) to estimate the amount of live cells remaining vs. concentration for the test compounds. […] The MTT and culture medium is then removed from the cultures and 200 µl of DMSO is added to solubilize the dye from the cell layer. The absorbance at 570 nm is determined for each culture using a Spectramax plate reader (Molecular Devices).
(§2) IC50s were determined from the raw data from either the MTT or SRB assays.
(§3) All of the cell lines were obtained from American Type Tissue Collection, with the ATCC accession number in parentheticals. MCF-7 and MDA-MB-231 cells were grown in improved minimum essential medium (Biofluids) without phenol red, supplemented with 5 % fetal bovine serum, 0.01 mg/ml gentamicin and 3 mM L-glutamine.

cdk2/cyclin E = cdk2/cyclin E (Homo sapiens, UniProt P24941); assay: Cyclin-dependent kinase assay, cdk2/cyclin E; conditions: CDK2 IC50, nM, GST-pRb substrate, 10 µM ATP
cdk1/cyclin B = cdk1/cyclin B (Homo sapiens, UniProt P06493); assay: Cyclin-dependent kinase assay, cdk1/cyclin B; conditions: CDK1 IC50, nM, Histone H1, 10 µM ATP
PC-3 = assay: In vitro proliferation assay (MTT), PC-3; type: cell-based, human; conditions: value (SD, n) where given, read-out: PC-3 Prostate (IC50 µM)
Procedure: as §1, §2, §3

cdk4/cyclin D1 = cdk4/cyclin D1 (Homo sapiens, UniProt P11802); assay: Cyclin-dependent kinase assay, cdk4/cyclin D1; type: biochemical; conditions: cyclin D1/cdk4; GST-pRb substrate, 10 µM ATP
[1] = Homo sapiens, MDA-MB-435, MTT assay

Chain of cdk1/cyclin B (P06493 whole entry): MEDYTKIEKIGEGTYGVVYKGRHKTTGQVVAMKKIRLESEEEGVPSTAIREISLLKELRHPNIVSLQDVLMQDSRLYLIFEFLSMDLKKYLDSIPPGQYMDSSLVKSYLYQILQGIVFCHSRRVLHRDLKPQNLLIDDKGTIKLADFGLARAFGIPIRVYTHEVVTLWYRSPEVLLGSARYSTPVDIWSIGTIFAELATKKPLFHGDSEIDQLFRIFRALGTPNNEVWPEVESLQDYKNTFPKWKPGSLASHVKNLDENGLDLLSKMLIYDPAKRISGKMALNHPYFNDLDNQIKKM
Chain of cdk1/cyclin B (P14635 whole entry partner): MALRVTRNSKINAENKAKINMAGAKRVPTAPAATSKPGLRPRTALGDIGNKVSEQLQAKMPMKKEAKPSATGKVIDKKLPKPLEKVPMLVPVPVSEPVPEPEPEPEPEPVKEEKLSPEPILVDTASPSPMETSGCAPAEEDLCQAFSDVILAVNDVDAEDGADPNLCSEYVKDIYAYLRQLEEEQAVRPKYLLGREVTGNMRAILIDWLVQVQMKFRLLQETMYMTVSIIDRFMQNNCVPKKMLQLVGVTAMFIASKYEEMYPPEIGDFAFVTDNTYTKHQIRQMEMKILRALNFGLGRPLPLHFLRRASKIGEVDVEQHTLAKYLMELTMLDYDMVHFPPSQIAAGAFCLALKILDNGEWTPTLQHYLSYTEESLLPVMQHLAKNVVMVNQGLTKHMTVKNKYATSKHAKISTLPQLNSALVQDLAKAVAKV
Chain of cdk4/cyclin D1 (P11802 whole entry): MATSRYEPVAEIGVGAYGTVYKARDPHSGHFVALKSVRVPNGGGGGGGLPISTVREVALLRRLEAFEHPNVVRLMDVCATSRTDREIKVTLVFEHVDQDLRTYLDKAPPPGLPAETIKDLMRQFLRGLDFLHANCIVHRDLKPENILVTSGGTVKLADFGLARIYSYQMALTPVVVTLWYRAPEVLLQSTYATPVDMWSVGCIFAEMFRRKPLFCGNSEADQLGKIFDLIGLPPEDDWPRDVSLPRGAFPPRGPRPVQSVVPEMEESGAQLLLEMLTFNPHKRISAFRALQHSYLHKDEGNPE
Chain of cdk4/cyclin D1 (P24385 whole entry partner): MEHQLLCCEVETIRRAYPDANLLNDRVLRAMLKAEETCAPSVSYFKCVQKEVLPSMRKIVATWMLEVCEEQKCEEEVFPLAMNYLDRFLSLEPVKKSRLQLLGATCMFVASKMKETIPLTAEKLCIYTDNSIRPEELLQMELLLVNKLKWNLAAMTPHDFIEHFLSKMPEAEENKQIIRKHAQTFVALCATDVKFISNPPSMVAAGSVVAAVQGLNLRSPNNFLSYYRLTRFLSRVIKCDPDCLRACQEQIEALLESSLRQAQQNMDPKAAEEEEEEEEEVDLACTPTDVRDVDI

SMILES	IC50 (MDA-MB-435; [1]) [µM]	IC50 (cdk2/cyclin E) [nM]	IC50 (cdk1/cyclin B) [nM]	IC50 (PC-3; Homo sapiens, PC-3, MTT assay) [µM]	IC50 (cdk4/cyclin D1) [nM]	IC50 (MDA-MB-435; MTT assay) [µM]	IC50 (PC-3; MTT assay) [µM]
C=CCCC(=O)N1CCC(Nc2nc(N[C@H]3CC[C@H](N)CC3)nc3c2ncn3C2CCCC2)CC1 [compound 49, trans-1-{4-[2-(4-Amino-cyclohexylamino)-9-cyclopentyl-9H-purin-6-ylamino]-piperidin-1-yl}-pent-4-en-1-one dihydrochloride]	1.23	49	121	0.92	88	–	–
CC(C)(C)CC(=O)N1CCC(Nc2nc(N[C@H]3CC[C@H](N)CC3)nc3c2ncn3C2CCCC2)CC1 [compound 51, trans-1-{4-[2-(4-Amino-cyclohexylamino)-9-cyclopentyl-9H-purin-6-ylamino]-piperidin-1-yl}-3,3-dimethyl-butan-1-one dihydrochloride]	0.42	65	109	0.5	99	–	–
CCCCCC(=O)N1CCC(Nc2nc(N[C@H]3CC[C@H](N)CC3)nc3c2ncn3C2CCCC2)CC1 [compound 54, trans-1-{4-[2-(4-Amino-cyclohexylamino)-9-cyclopentyl-9H-purin-6-ylamino]-piperidin-1-yl}-hexan-1-one dihydrochloride]	0.6	49	45	0.59	315	–	–
N[C@H]1CC[C@H](Nc2nc(NC3CCN(C(=O)C4CCCCC4)CC3)c3ncn(C4CCCC4)c3n2)CC1 [compound 55, trans-1-{4-[2-(4-Amino-cyclohexylamino)-9-cyclopentyl-9H-purin-6-ylamino]-piperidin-1-yl}-1-cyclohexyl-methanone dihydrochloride]	0.41	56	99	0.57	621	–	–
CCCCC(=O)N1CCC(Nc2nc(N[C@H]3CC[C@H](N)CC3)nc3c2ncn3C2CCCC2)CC1 [compound 56, trans-1-{4-[2-(4-Amino-cyclohexylamino)-9-cyclopentyl-9H-purin-6-ylamino]-piperidin-1-yl}-pentan-1-one dihydrochloride]	0.61	53	43	0.69	909	–	–
CC(C)C(=O)N1CCC(Nc2nc(N[C@H]3CC[C@H](N)CC3)nc3c2ncn3C2CCCC2)CC1 [compound 59, trans-1-{4-[2-(4-Amino-cyclohexylamino)-9-cyclopentyl-9H-purin-6-ylamino]-piperidin-1-yl) -2-methyl-propan-1-one dihydrochloride]	0.62	52	93	0.96	721	–	–
N[C@H]1CC[C@H](Nc2nc(NC3CCN(C(=O)C4CC4)CC3)c3ncn(C4CCCC4)c3n2)CC1 [compound 64, trans-1-{4-[2-(4-Amino-cyclohexylamino)-9-cyclopentyl-9H-purin-6-ylamino]-piperidin-1-yl}-1-cyclopropyl-methanone dihydrochloride]	1.13	62	65	1.03	593	–	–
N[C@H]1CC[C@H](Nc2nc(NC3CCN(C(=O)c4cccc5c4-c4ccccc4C5=O)CC3)c3ncn(C4CCCC4)c3n2)CC1 [compound 66, trans-4-(1-{4-[2-(4-Amino-cyclohexylamino)-9-cyclopentyl-9H-purin-6-ylamino]-piperidin-1-yl}-methanoyl)-fluoren-9-one]	1.66	325	234	1.93	1720	–	–
N[C@H]1CC[C@H](Nc2nc(NC3CCN(C(=O)c4cc(C(F)(F)F)ccc4F)CC3)c3ncn(C4CCCC4)c3n2)CC1 [compound 69, trans-1-{4-[2-(4-Amino-cyclohexylamino)-9-cyclopentyl-9H-purin-6-ylamino]-piperidin-1-yl}-1-(2-fluoro-5-trifluoromethyl-phenyl)-methanone]	0.48	84	48	0.35	852	–	–

Second part, the molecule after the results:

IC50 (MDA-MB-435; [1]) [µM]	IC50 (cdk2/cyclin E) [nM]	IC50 (cdk1/cyclin B) [nM]	IC50 (PC-3; Homo sapiens, PC-3, MTT assay) [µM]	IC50 (cdk4/cyclin D1) [nM]	IC50 (MDA-MB-435; MTT assay) [µM]	IC50 (PC-3; MTT assay) [µM]	SMILES
0.87	59	40	0.69	350	–	–	N[C@H]1CC[C@H](Nc2nc(NC3CCN(C(=O)Cc4ccccc4)CC3)c3ncn(C4CCCC4)c3n2)CC1 [compound 52, trans-1-{4-[2-(4-Amino-cyclohexylamino)-9-cyclopentyl-9H-purin-6-ylamino]-piperidin-1-yl}-2-phenyl-ethanone dihydrochloride]
1.17	80	40	0.88	934	–	–	CCC(=O)N1CCC(Nc2nc(N[C@H]3CC[C@H](N)CC3)nc3c2ncn3C2CCCC2)CC1 [compound 53, trans-1-{4-[2-(4-Amino-cyclohexylamino)-9-cyclopentyl-9H-purin-6-ylamino]-piperidin-1-yl}-propan-1-one dihydrochloride]
1.01	68	52	0.94	357	–	–	CCCC(=O)N1CCC(Nc2nc(N[C@H]3CC[C@H](N)CC3)nc3c2ncn3C2CCCC2)CC1 [compound 58, trans-1-{4-[2-(4-Amino-cyclohexylamino)-9-cyclopentyl-9H-purin-6-ylamino]-piperidin-1-yl}-butan-1-one dihydrochloride]
0.69	37	83	0.65	91	–	–	CC(C)CC(=O)N1CCC(Nc2nc(N[C@H]3CC[C@H](N)CC3)nc3c2ncn3C2CCCC2)CC1 [compound 60, trans-1-{4-[2-(4-Amino-cyclohexylamino)-9-cyclopentyl-9H-purin-6-ylamino]-piperidin-1-yl}-3-methyl-butan-1-one dihydrochloride]
0.61	38	40	0.58	750	–	–	N[C@H]1CC[C@H](Nc2nc(NC3CCN(C(=O)Cc4cccs4)CC3)c3ncn(C4CCCC4)c3n2)CC1 [compound 61, trans-1-{4-[2-(4-Amino-cyclohexylamino)-9-cyclopentyl-9H-purin-6-ylamino]-piperidin-1-yl}-2-thiophen-2-yl-ethanone dihydrochloride]
3.09	50	72	3.29	764	–	–	COCC(=O)N1CCC(Nc2nc(N[C@H]3CC[C@H](N)CC3)nc3c2ncn3C2CCCC2)CC1 [compound 65, trans-1-{4-[2-(4-Amino-cyclohexylamino)-9-cyclopentyl-9H-purin-6-ylamino]-piperidin-1-yl}-2-methoxy-ethanone dihydrochloride]
50	441	824	38	3150	–	–	N[C@H]1CC[C@H](Nc2nc(NC3CCN(C(=O)c4cccnc4)CC3)c3ncn(C4CCCC4)c3n2)CC1 [compound 67, trans-1-{4-[2-(4-Amino-cyclohexylamino)-9-cyclopentyl-9H-purin-6-ylamino]-piperidin-1-yl}-1-pyridin-3-yl-methanone]
21	84	136	16	1440	–	–	N[C@H]1CC[C@H](Nc2nc(NC3CCN(C(=O)c4ccncc4)CC3)c3ncn(C4CCCC4)c3n2)CC1 [compound 68, trans-1-{4-[2-(4-Amino-cyclohexylamino)-9-cyclopentyl-9H-purin-6-ylamino]-piperidin-1-yl}-1-pyridin-4-yl-methanone]
4.6	430	277	4.4	4510	–	–	Cc1ccccc1C(=O)N1CCC(Nc2nc(N[C@H]3CC[C@H](N)CC3)nc3c2ncn3C2CCCC2)CC1 [compound 70, trans-1-{4-[2-(4-Amino-cyclohexylamino)-9-cyclopentyl-9H-purin-6-ylamino]-piperidin-1-yl}-1-(2-methyl-phenyl)-methanone]
0.64	91	53	0.61	698	–	–	N[C@H]1CC[C@H](Nc2nc(NC3CCN(C(=O)c4cccc(Br)c4)CC3)c3ncn(C4CCCC4)c3n2)CC1 [compound 71, trans-1-{4-[2-(4-Amino-cyclohexylamino)-9-cyclopentyl-9H-purin-6-ylamino]-piperidin-1-yl}-1-(3-bromophenyl)-methanone]
–	89	51	–	864	0.03	0.03	N[C@H]1CC[C@H](Nc2nc(NC3CCN(C(=O)c4cccc(Cl)c4)CC3)c3ncn(C4CCCC4)c3n2)CC1 [compound 72, trans-1-{4-[2-(4-Amino-cyclohexylamino)-9-cyclopentyl-9H-purin-6-ylamino]-piperidin-1-yl}-1-(3-chloro-phenyl)-methanone]
